Molecular target: human GPR40 (Homo sapiens, UniProt O14842)
Assay: Calcium mobilization assay, agonistic activity on GPR40
Format: cell-based
Conditions: cells expressing human GPR40 (hGPR40-1321N1); for EC50: read-out: GPR40 agonistic activity (pEC50) (converted)
Procedure: Cell Culture and Transfection. 1321N1 cells stably transfected with the human GPR40 were kindly provided by Euroscreen (Gosselies, Belgium). hGPR40-1321N1 cells were grown in Dulbecco's modified Eagle's medium supplemented with 10% (v/v) heat-inactivated fetal calf serum, 1% sodium pyruvate, 100 U/ml penicillin, 100 μg/ml streptomycin, and 400 μg/ml G418. 1321N1, HEK293 cells were grown in Dulbecco's modified Eagle's medium supplemented with 10% (v/v) heat-inactivated fetal calf serum, 1% sodium pyruvate, 100 U/ml penicillin, and 100 μg/ml streptomycin. All cells were kept at 37° C. in a 5% CO2 atmosphere. […]
Calcium Mobilization Assays. Calcium measurements were performed using a NOVOstar® microplate reader with a built-in pipetor (BMG LabTech, Offenburg, Germany). Cells were seeded in 96-well tissue-culture plates at a density of 30,000 cells per well. […] For testing of agonists, 20 μl of a ten-fold concentrated test compound solution was injected sequentially into separate wells and fluorescence was measured at 520 nm (bandwidth 25 nm) for 50 intervals of 0.4 seconds each. […] Concentration-inhibition curves in the presence of the test compounds were obtained by preincubating the cells with the compounds for 30 min at 37° C. prior to injection of agonist.

Chain of human GPR40 (O14842 whole entry): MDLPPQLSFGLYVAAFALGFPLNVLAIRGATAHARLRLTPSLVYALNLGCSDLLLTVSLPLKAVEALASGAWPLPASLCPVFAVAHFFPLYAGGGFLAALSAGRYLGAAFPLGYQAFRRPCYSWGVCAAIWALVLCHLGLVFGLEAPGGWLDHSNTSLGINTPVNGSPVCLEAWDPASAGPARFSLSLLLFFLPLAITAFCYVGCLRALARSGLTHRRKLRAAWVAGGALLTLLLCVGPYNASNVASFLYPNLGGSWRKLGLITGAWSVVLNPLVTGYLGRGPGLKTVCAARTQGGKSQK

Structure (SMILES)	EC50 [nM]	GPR40 agonistic activity (pEC50)
O=C(O)[C@@H]1C[C@H]1c1ccc(C#Cc2ccccc2)cc1 (relative stereo) [Example A29, trans-2-(4-(Phenylethynyl)phenyl)cyclopropanecarboxylic acid]	145	–
O=C(O)COc1ccc(C#Cc2ccccc2)cc1 [Example A1, 2-(4-(Phenylethynyl)phenoxy)acetic acid]	1320	–
Cc1ccccc1C#Cc1ccc(OCC(=O)O)cc1 [Example A2, 2-(4-(o-Tolylethynyl)phenoxy)acetic acid]	3630	–
Cc1ccc(C#Cc2ccc(OCC(=O)O)cc2)cc1 [Example A3, 2-(4-(p-Tolylethynyl)phenoxy)acetic acid]	29500	–
Cc1cccc(C#Cc2ccc(OCC(=O)O)cc2)c1 [Example A4, 2-(4-(m-Tolylethynyl)phenoxy)acetic acid]	562	–
O=C(O)CCc1ccc(C#Cc2ccccc2)cc1 [Example A5, 3-(4-(Phenylethynyl)phenyl)propanoic acid]	–	7.02
O=C(O)CCc1ccc(C#Cc2cccc3ccccc23)cc1 [Example A6, 3-(4-(1-Naphthylethynyl)phenyl)propanoic acid]	85.1	–
Cc1cccc(C#Cc2ccc(CCC(=O)O)cc2)c1 [Example A7, 3-(4-(m-Tolylethynyl)phenyl)propanoic acid]	–	7.36
O=C(O)CCc1ccc(C#Cc2cccc(CO)c2)cc1 [Example A8, 3-(4-((3-(Hydroxymethyl)phenyl)ethynyl)phenyl)propanoic acid]	–	6.05
Cc1ccccc1C#Cc1ccc(CCC(=O)O)cc1 [Example A9, 3-(4-(o-Tolylethynyl)phenyl)propanoic acid]	–	7.49
N#Cc1cccc(C#Cc2ccc(CCC(=O)O)cc2)c1 [Example A11, 3-(4-((3-Cyanophenyl)ethynyl)phenyl)propanoic acid]	–	7.04
O=C(O)CCc1ccc(C#Cc2cccc([N+](=O)[O-])c2)cc1 [Example A12, 3-(4-((3-Nitrophenyl)ethynyl)phenyl)propanoic acid]	57.5	–
O=Cc1cccc(C#Cc2ccc(CCC(=O)O)cc2)c1 [Example A13, 3-(4-((3-Formylphenyl)ethynyl)phenyl)propanoic acid]	–	6.45
O=C(O)CCc1ccc(C#Cc2cccc(C(F)(F)F)c2)cc1 [Example A14, 3-(4-((3-(Trifluoromethyl)phenyl)ethynyl)phenyl)propanoic acid]	–	7.05
Cc1cc(C)cc(C#Cc2ccc(CCC(=O)O)cc2)c1 [Example A15, 3-(4-((3,5-Dimethylphenyl)ethynyl)phenyl)propanoic acid]	–	7.13
Cc1cccc(C#Cc2ccc(CCC(=O)O)cc2)c1C [Example A16, 3-(4-((2,3-Dimethylphenyl)ethynyl)phenyl)propanoic acid]	–	7.06
Nc1cccc(C#Cc2ccc(CCC(=O)O)cc2)c1 [Example A17, 3-(4-((3-Aminophenyl)ethynyl)phenyl)propanoic acid]	–	5.96
C#Cc1cccc(C#Cc2ccc(CCC(=O)O)cc2)c1 [Example A18, 3-(4-((3-Ethynylphenyl)ethynyl)phenyl)propanoic acid]	–	6.81
O=C(O)CCc1ccc(C#Cc2cccc(-c3cn(Cc4ccccc4)nn3)c2)cc1 [Example A19, 3-(4-((3-(1-Benzyl-1H-1,2,3-triazol-4-yl)phenyl)ethynyl)phenyl)propanoic acid]	1910	–
O=C(O)CCc1ccc(C#Cc2ccccn2)cc1 [Example A20, 3-(4-(Pyridin-2-ylethynyl)phenyl)propanoic acid]	8130	–
O=C(O)CCc1ccc(C#Cc2cccnc2)cc1 [Example A21, 3-(4-(Pyridin-3-ylethynyl)phenyl)propanoic acid]	2750	–
O=C(O)CCc1ccc(C#Cc2ccnc(Cl)c2)cc1 [Example A22, 3-(4-((2-Chloropyridin-4-yl)ethynyl)phenyl)propanoic acid]	115	–
Cc1cccc(C#Cc2ccc(CCC(=O)O)cc2)n1 [Example A23, 3-(4-((6-Methylpyridin-2-yl)ethynyl)phenyl)propanoic acid]	3800	–

Structure (SMILES)	EC50 [nM]	GPR40 agonistic activity (pEC50)
O=C(O)COc1ccc(C#Cc2cccc(O)c2)cc1 [Example A24, 2-(4-((3-Hydroxyphenyl)ethynyl)phenoxy)ethanoic acid]	4790	–
O=C(O)COc1ccc(C#Cc2ccc(O)cc2)cc1 [Example A25, 2-(4-((4-Hydroxyphenyl)ethynyl)phenoxy)ethanoic acid]	132000	–
O=C(O)COc1ccc(C#Cc2ccc(CO)cc2)cc1 [Example A26, 2-(4-((4-(Hydroxymethyl)phenyl)ethynyl)phenoxy)ethanoic acid]	112000	–
CCc1ccccc1C#Cc1ccc(CCC(=O)O)cc1 [Example A30, 3-(4-((2-Ethylphenyl)ethynyl)phenyl)propanoic acid]	–	7.05
Cc1cc(C#Cc2ccc(CCC(=O)O)cc2)ccn1 [Example A32, 3-(4-((2-Methylpyridin-4-yl)ethynyl)phenyl)propanoic acid]	–	5.95
O=C(O)CCc1ccc(C#Cc2cc(Cl)nc(Cl)c2)cc1 [Example A33, 3-(4-((2,6-Dichloropyridin-4-yl)ethynyl)phenyl)propanoic acid]	56.2	–
O=C(O)CCc1ccc(C#Cc2ncccc2[N+](=O)[O-])cc1 [Example A34, 3-(4-((3-Nitropyridin-2-yl)ethynyl)phenyl)propanoic acid]	–	4.96
O=C(O)C1CC1c1ccc(C#Cc2cc(Cl)nc(Cl)c2)cc1 (stereo not drawn) [Example A35, 2-(4-((2,6-Dichloropyridin-4-yl)ethynyl)phenyl)cyclopropanecarboxylic acid]	–	7.37
Cc1ccccc1C#Cc1ccc(C2CC2C(=O)O)cc1 (stereo not drawn) [Example A36, 2-(4-(o-Tolylethynyl)phenyl)cyclopropanecarboxylic acid]	138	–
Cc1cccc(C#Cc2ccc(C3CC3C(=O)O)cc2)c1 (stereo not drawn) [Example A37, 2-(4-(m-Tolylethynyl)phenyl)cyclopropanecarboxylic acid]	93.3	–
Cc1ccc(C#Cc2ccc(C3CC3C(=O)O)cc2)cc1 (stereo not drawn) [Example A38, 2-(4-(p-Tolylethynyl)phenyl)cyclopropanecarboxylic acid]	309	–
O=C(O)CCc1ccc(C#Cc2ccccc2-c2ccccc2)cc1 [Example A40, 3-(4-(Biphenyl-2-ylethynyl)phenyl)propanoic acid]	–	6.00
Cc1cccc(C)c1C#Cc1ccc(CCC(=O)O)cc1 [Example A50, 3-(4-((2,6-Dimethylphenyl)etnynyl)phenyl)propanoic acid]	–	6.38
COc1ccccc1C#Cc1ccc(CCC(=O)O)cc1 [Example A51, 3-(4-((2-Methoxyphenyl)ethynyl)phenyl) acid]	–	6.66
O=C(O)CCc1ccc(C#Cc2cccc(O)c2)cc1 [Example A52, 3-(4-((3-Hydroxyphenyl)ethynyl)phenyl)propanoic acid]	–	6.35
CC(=O)c1ccccc1C#Cc1ccc(CCC(=O)O)cc1 [Example A53, 3-(4-((2-Acetylphenyl)ethynyl)phenyl)propanoic acid]	–	6.73
O=C(O)CCc1ccc(C#Cc2cccc(OCc3ccccc3)c2)cc1 [Example A55, 3-(4-((3-(Benzyloxy)phenyl)ethynyl)phenyl)propanoic acid]	525	–
C#CCOc1cccc(C#Cc2ccc(CCC(=O)O)cc2)c1 [Example A56, 3-(4-((3-(Prop-2-ynyloxy)phenyl)ethynyl)phenyl)propanoic acid]	77.6	–
C=CCOc1cccc(C#Cc2ccc(CCC(=O)O)cc2)c1 [Example A57, 3-(4-((3-(Allyloxy)phenyl)ethynyl)phenyl)propanoic acid]	145	–
O=C(O)CCc1ccc(C#Cc2ccccc2O)cc1 [Example A58, 3-(4-((2-Hydroxyphenyl)ethynyl)phenyl)propanoic acid]	–	4.79
O=C(O)CCc1ccc(C#Cc2ccccc2CO)cc1 [Example A59]	–	6.24
Cc1ccc(S(=O)(=O)OCCc2ccccc2C#Cc2ccc(CCC(=O)O)cc2)cc1 [Example A61, 3-(4-((2-(2-(Tosyloxy)ethyl)phenyl)ethynyl)phenyl)propanoic acid]	316	–

— US8586607B2, “Compounds for the treatment of metabolic diseases” (Syddansk Universitet, priority 2008, dated 2013)
